Reference: publication PMC11775380, “Discovery of Novel Nav1.7-Selective Inhibitors with the 1H-Indole-3-Propionamide Scaffold for Effective Pain Relief” (Research, 2025)

molecular target: T1, human Nav1.7 (hNav1.7) (Homo sapiens, UniProt Q15858); experiment: Whole-cell patch-clamp inhibition of Nav1.7 currents in transfected HEK293T cells; assay type: cell-based; settings: HEK-293T; 10 μM compound; inhibition rate of Nav1.7; read-out: Inhibitory activity (10 μM)
T1 construct: expressed in transfected cells; host or cells: HEK293T
T1 sequence (Q15858 whole entry): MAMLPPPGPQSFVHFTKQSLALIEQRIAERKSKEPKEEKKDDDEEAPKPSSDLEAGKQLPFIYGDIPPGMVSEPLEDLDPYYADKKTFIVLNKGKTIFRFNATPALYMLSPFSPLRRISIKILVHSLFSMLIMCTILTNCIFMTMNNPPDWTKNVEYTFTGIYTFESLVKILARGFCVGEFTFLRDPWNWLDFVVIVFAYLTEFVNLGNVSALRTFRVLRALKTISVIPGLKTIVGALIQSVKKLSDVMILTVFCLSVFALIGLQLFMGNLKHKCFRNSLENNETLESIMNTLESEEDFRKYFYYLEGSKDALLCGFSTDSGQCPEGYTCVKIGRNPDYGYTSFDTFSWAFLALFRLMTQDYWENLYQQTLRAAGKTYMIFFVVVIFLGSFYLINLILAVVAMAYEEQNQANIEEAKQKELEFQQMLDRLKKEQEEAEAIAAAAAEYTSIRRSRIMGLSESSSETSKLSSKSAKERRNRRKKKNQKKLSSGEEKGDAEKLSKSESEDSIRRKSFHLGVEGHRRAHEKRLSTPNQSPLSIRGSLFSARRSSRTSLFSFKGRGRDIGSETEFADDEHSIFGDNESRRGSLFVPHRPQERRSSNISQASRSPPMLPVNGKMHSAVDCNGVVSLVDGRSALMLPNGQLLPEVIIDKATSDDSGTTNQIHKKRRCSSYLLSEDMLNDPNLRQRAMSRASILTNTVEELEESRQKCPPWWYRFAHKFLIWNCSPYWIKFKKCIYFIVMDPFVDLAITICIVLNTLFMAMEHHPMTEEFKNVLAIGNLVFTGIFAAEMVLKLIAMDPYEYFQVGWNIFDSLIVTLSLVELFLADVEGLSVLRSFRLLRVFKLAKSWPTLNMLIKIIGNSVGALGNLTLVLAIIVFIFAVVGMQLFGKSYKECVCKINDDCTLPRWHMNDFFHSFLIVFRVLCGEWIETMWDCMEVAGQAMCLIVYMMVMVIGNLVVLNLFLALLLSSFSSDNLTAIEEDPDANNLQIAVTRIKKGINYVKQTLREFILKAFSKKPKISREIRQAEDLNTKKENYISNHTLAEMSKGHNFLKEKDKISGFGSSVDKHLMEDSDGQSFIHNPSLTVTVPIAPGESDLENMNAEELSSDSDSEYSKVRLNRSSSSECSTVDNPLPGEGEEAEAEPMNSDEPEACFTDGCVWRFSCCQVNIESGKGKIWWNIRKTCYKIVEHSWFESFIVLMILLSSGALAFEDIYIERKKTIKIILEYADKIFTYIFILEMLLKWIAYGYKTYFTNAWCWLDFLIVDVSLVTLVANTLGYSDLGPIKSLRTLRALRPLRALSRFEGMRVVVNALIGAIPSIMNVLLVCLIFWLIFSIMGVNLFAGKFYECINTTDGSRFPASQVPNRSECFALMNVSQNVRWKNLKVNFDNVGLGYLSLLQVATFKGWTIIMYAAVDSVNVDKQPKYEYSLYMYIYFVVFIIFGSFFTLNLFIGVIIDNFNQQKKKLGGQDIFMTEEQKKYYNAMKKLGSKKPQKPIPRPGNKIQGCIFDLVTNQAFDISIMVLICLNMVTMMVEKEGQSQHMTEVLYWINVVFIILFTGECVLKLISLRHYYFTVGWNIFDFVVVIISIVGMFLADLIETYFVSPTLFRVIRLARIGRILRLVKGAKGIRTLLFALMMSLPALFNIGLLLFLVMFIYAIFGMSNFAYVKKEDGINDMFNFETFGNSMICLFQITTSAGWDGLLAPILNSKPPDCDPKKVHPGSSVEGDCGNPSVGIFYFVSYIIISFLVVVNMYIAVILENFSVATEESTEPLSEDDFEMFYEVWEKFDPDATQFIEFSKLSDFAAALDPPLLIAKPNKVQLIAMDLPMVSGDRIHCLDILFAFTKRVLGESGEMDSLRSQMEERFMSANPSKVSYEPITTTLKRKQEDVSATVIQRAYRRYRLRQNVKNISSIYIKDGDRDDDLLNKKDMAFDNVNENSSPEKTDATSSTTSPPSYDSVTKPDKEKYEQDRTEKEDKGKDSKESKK
T1 sequence (Q07699 19-218 partner): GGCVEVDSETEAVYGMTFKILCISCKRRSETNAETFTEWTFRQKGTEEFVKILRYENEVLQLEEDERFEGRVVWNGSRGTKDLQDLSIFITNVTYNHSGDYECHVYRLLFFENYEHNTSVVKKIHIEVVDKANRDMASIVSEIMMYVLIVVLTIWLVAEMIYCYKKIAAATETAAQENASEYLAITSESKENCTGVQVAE
T1 sequence (O60939 30-215 partner): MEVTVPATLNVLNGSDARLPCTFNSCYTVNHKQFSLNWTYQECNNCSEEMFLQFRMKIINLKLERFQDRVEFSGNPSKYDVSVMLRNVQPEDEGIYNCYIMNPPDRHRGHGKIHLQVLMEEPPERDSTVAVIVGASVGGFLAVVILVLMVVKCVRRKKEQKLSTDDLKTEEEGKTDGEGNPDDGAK
Experimental: Human embryonic kidney (HEK) 293T (ATCC CRL-3216) and ND7/23 cells (National Collection of Authenticated Cell Cultures SCSP-5026) were cultured under standard conditions (5% CO2, 37 °C) in Dulbecco’s modified Eagle’s medium (DMEM) containing 10% fetal bovine serum and 1% penicillin-streptomycin solution(all from Gibco, Thermo Fisher Scientific, Waltham, MA, USA). When the cells reached 70% to 90% confluence, human Nav1.2 (hNav1.2), human Nav1.3 (hNav1.3), human Nav1.4 (hNav1.4), human Nav1.5 (hNav1.5), and mouse Nav1.6 (mNav1.6) channel plasmids were cotransfected with enhanced green fluorescent protein (eGFP) into HEK293T cells. Additionally, plasmids expressing β1 and β2 subunits tagged with eGFP were cotransfected with the human Nav1.7 (hNav1.7) channel into HEK293T cells. Human Nav1.8 (hNav1.8) was transiently transfected into ND7/23 cells, along with eGFP, using Lipofectamine 2000 (Invitrogen), adhering strictly to the manufacturer’s protocol. For manual patch-clamp experiments, the cells were plated onto glass coverslips and used within 20 to 48 h of transfection.
Whole-cell patch-clamp recordings were conducted at 25 ± 2 °C, utilizing an EPC 10USB patch-clamp amplifier (HEKA Elektronik, Lambrecht, Germany). Pipettes, with access resistance between 2.0 and 3.0 MΩ, were pulled from borosilicate glass capillary tubes using a 2-step vertical microelectrode puller (PC-10, Narishige Group, Tokyo, Japan). Voltage-clamp recordings were obtained with PatchMaster software v2 × 73 (HEKA Elektronik) 5 min after establishing whole-cell configuration, sampled at 20 kHz, and filtered at 5 kHz. To minimize voltage errors, 80% series resistance compensation was applied. Pipettes were filled with 140 mM CsF, 10 mM NaCl, 1 mM EGTA, and 10 mM HEPES (pH=7.4, adjusted with CsOH). The external solution contained 140 mM NaCl, 2 mM CaCl2, 1 mM MgCl2, 5 mM KCl, 10 mM HEPES, and 10 mM glucose (pH=7.4, adjusted with NaOH). IC50 values were determined in HEK293T or ND7/23 cell lines by voltage clamping at −80 mV, followed by stepping to the V1/2 of inactivation for 8 s to facilitate compound binding.

inhibition at 10 µM [%]	SMILES
-0.67	O=C(CSc1nc(=O)n(Cc2cccnc2)c2c1CCC2)NCc1ccc(F)cc1 [A1, C1CC2=C(C1)N(C(=O)N=C2SCC(=O)NCC3=CC=C(C=C3)F)CC4=CN=CC=C4]
36.6	COc1ccc(S(=O)(=O)Nc2ccc3c(c2)CCCN3C(=O)c2ccccc2)cc1OC [A2, COC1=C(C=C(C=C1)S(=O)(=O)NC2=CC3=C(C=C2)N(CCC3)C(=O)C4=CC=CC=C4)OC]
9.09	O=C(CC(c1cccc(OCc2ccccc2)c1)c1cn(Cc2ccc(F)cc2)c2ccccc12)NCCc1ccccc1 (stereo not drawn) [A3, C1=CC=C(C=C1)CCNC(=O)CC(C2=CC(=CC=C2)OCC3=CC=CC=C3)C4=CN(C5=CC=CC=C54)CC6=CC=C(C=C6)F]
76.4	O=C(CN(C(=O)c1ccc(Cl)cc1)C1CC1)Nc1nc(-c2ccccc2)cn1-c1ccccc1 [A4, C1CC1N(CC(=O)NC2=NC(=CN2C3=CC=CC=C3)C4=CC=CC=C4)C(=O)C5=CC=C(C=C5)Cl]
58	O=C(CC(c1cccc(Cl)c1)c1cn(Cc2ccc(F)cc2)c2ccccc12)NCC1COc2ccccc2O1 (stereo not drawn) [A7, FC(C=C1)=CC=C1CN2C=C(C(CC(NCC3COC(C=CC=C4)=C4O3)=O)C5=CC(Cl)=CC=C5)C6=CC=CC=C62]
12.1	COc1ccc(N2CC(C(=O)NC3CCCc4c3[nH]c3ccccc43)CC2=O)c(OC)c1 (stereo not drawn) [A8, COC1=CC(=C(C=C1)N2CC(CC2=O)C(=O)NC3CCCC4=C3NC5=CC=CC=C45)OC]
4.44	Brc1ccc(-c2nc(-c3ccc(Oc4ccccc4)cc3)c(-c3ccc(Oc4ccccc4)cc3)[nH]2)cc1 [A9, C1=CC=C(C=C1)OC2=CC=C(C=C2)C3=C(N=C(N3)C4=CC=C(C=C4)Br)C5=CC=C(C=C5)OC6=CC=CC=C6]
2.74	O=C1OC(Nc2ccc(S(=O)(=O)Nc3ccccn3)cc2)c2ccccc21 (stereo not drawn) [A10, C1=CC=C2C(=C1)C(OC2=O)NC3=CC=C(C=C3)S(=O)(=O)NC4=CC=CC=N4]
4.91	CS(=O)(=O)c1ccc2nc(NC(=O)Nc3ccc(Cl)c(Cl)c3)sc2c1 [A11, CS(=O)(=O)C1=CC2=C(C=C1)N=C(S2)NC(=O)NC3=CC(=C(C=C3)Cl)Cl]
9.32	CC(=O)N1CCc2nc3sc(C(=O)Nc4cccc(C#N)c4)c(N)c3c(C(F)(F)F)c2C1 [A12, CC(=O)N1CCC2=C(C1)C(=C3C(=C(SC3=N2)C(=O)NC4=CC=CC(=C4)C#N)N)C(F)(F)F]
2.68	O=C(Nc1ccccc1C(F)(F)F)c1ccc2c(c1)C(=O)N(Cc1cccnc1)C2=O [A14, C1=CC=C(C(=C1)C(F)(F)F)NC(=O)C2=CC3=C(C=C2)C(=O)N(C3=O)CC4=CN=CC=C4]
6.13	O=C(CC(c1ccc(F)cc1)c1cn(Cc2ccccc2)c2ccccc12)NCCc1ccc(Cl)cc1Cl (stereo not drawn) [B1, C1=CC=C(C=C1)CN2C=C(C3=CC=CC=C32)C(CC(=O)NCCC4=C(C=C(C=C4)Cl)Cl)C5=CC=C(C=C5)F]
11.5	O=C(CC(c1ccc(F)cc1)c1cn(Cc2ccccc2)c2ccccc12)NCc1ccccn1 (stereo not drawn) [B2, C1=CC=C(C=C1)CN2C=C(C3=CC=CC=C32)C(CC(=O)NCC4=CC=CC=N4)C5=CC=C(C=C5)F]
13.4	NC(=O)CC(c1ccc(C(F)(F)F)cc1)c1cn(Cc2ccc(F)cc2)c2ccccc12 (stereo not drawn) [B4, C1=CC=C2C(=C1)C(=CN2CC3=CC=C(C=C3)F)C(CC(=O)N)C4=CC=C(C=C4)C(F)(F)F]
1.84	CCCCNC(=O)CC(c1cccc(C)c1)c1cn(Cc2ccc(F)cc2)c2ccccc12 (stereo not drawn) [B7, CCCCNC(=O)CC(C1=CC=CC(=C1)C)C2=CN(C3=CC=CC=C32)CC4=CC=C(C=C4)F]
6.28	O=C(CC(c1cccc(Oc2ccc(Cl)cc2)c1)c1cn(Cc2ccc(F)cc2)c2ccccc12)NCCc1ccccn1 (stereo not drawn) [B13, C1=CC=C2C(=C1)C(=CN2CC3=CC=C(C=C3)F)C(CC(=O)NCCC4=CC=CC=N4)C5=CC(=CC=C5)OC6=CC=C(C=C6)Cl]
24.8	Cn1cc(C(CC(=O)NCCc2ccccn2)c2cccc(C(F)(F)F)c2)c2ccccc21 (stereo not drawn) [B14, CN1C=C(C2=CC=CC=C21)C(CC(=O)NCCC3=CC=CC=N3)C4=CC(=CC=C4)C(F)(F)F]
4.16	O=C(CC(c1ccc(OCc2ccccc2)cc1)c1cn(Cc2ccc(F)cc2)c2ccccc12)NCCc1ccccn1 (stereo not drawn) [B16, C1=CC=C(C=C1)COC2=CC=C(C=C2)C(CC(=O)NCCC3=CC=CC=N3)C4=CN(C5=CC=CC=C54)CC6=CC=C(C=C6)F]
22.9	O=C(CC(c1ccc(F)cc1)c1cn(Cc2ccc(F)cc2)c2ccccc12)NCCc1ccccn1 (stereo not drawn) [B19, C1=CC=C2C(=C1)C(=CN2CC3=CC=C(C=C3)F)C(CC(=O)NCCC4=CC=CC=N4)C5=CC=C(C=C5)F]
18.2	O=C(CC(c1ccc(C(F)(F)F)cc1)c1cn(Cc2ccc(F)cc2)c2ccccc12)NCc1ccncc1 (stereo not drawn) [B23, C1=CC=C2C(=C1)C(=CN2CC3=CC=C(C=C3)F)C(CC(=O)NCC4=CC=NC=C4)C5=CC=C(C=C5)C(F)(F)F]

SMILES	inhibition at 10 µM [%]
COCCNC(=O)CC(c1ccc(OCc2ccccc2)c(OC)c1)c1cn(Cc2ccc(F)cc2)c2ccccc12 (stereo not drawn) [A5, COCCNC(=O)CC(C1=CC(=C(C=C1)OCC2=CC=CC=C2)OC)C3=CN(C4=CC=CC=C43)CC5=CC=C(C=C5)F]	3.57
CCOc1ccc(C2N(c3ccc(Cl)c(Cl)c3)N=C(C(C)=O)N2c2ccc(N3CCN(C(C)=O)CC3)cc2)cc1 (stereo not drawn) [A13, CCOC1=CC=C(C=C1)C2N(C(=NN2C3=CC(=C(C=C3)Cl)Cl)C(=O)C)C4=CC=C(C=C4)N5CCN(CC5)C(=O)C]	15.8
COc1ccc(Cn2cc(C(CC(=O)NCCc3ccccn3)c3ccc(C)cc3)c3ccccc32)cc1 (stereo not drawn) [B3, CC1=CC=C(C=C1)C(CC(=O)NCCC2=CC=CC=N2)C3=CN(C4=CC=CC=C43)CC5=CC=C(C=C5)OC]	14.2
Cc1cccc(C(CC(=O)NCCc2ccccc2)c2cn(Cc3ccc(F)cc3)c3ccccc23)c1 (stereo not drawn) [B5, CC1=CC(=CC=C1)C(CC(=O)NCCC2=CC=CC=C2)C3=CN(C4=CC=CC=C43)CC5=CC=C(C=C5)F]	2.93
Cc1cccc(C(CC(=O)NCCC(C)C)c2cn(Cc3ccc(F)cc3)c3ccccc23)c1 (stereo not drawn) [B6, CC1=CC(=CC=C1)C(CC(=O)NCCC(C)C)C2=CN(C3=CC=CC=C32)CC4=CC=C(C=C4)F]	7.88
O=C(CC(c1ccc(F)cc1)c1cn(Cc2ccccc2)c2ccccc12)NC1CC1 (stereo not drawn) [B8, C1CC1NC(=O)CC(C2=CC=C(C=C2)F)C3=CN(C4=CC=CC=C43)CC5=CC=CC=C5]	13.6
Cc1ccc(Cn2cc(C(CC(=O)NC3CCCCC3)c3ccc(F)cc3)c3ccccc32)cc1 (stereo not drawn) [B9, CC1=CC=C(C=C1)CN2C=C(C3=CC=CC=C32)C(CC(=O)NC4CCCCC4)C5=CC=C(C=C5)F]	6.85
O=C(CC(c1ccc(C(F)(F)F)cc1)c1cn(Cc2ccccc2)c2ccccc12)NCCN1CCCC1 (stereo not drawn) [B11, C1CCN(C1)CCNC(=O)CC(C2=CC=C(C=C2)C(F)(F)F)C3=CN(C4=CC=CC=C43)CC5=CC=CC=C5]	7.97
COc1ccc(Cn2cc(C(CC(=O)NCCc3ccccn3)c3cc(C)ccc3F)c3ccccc32)cc1 (stereo not drawn) [B12, CC1=CC(=C(C=C1)F)C(CC(=O)NCCC2=CC=CC=N2)C3=CN(C4=CC=CC=C43)CC5=CC=C(C=C5)OC]	4.98
CCOc1ccc(C(CC(=O)NCCc2ccccn2)c2cn(Cc3ccc(OC)cc3)c3ccccc23)cc1 (stereo not drawn) [B15, CCOC1=CC=C(C=C1)C(CC(=O)NCCC2=CC=CC=N2)C3=CN(C4=CC=CC=C43)CC5=CC=C(C=C5)OC]	20.5
COc1ccc(C(CC(=O)NCCc2ccccn2)c2cn(Cc3ccc(F)cc3)c3ccccc23)cc1OC (stereo not drawn) [B17, COC1=C(C=C(C=C1)C(CC(=O)NCCC2=CC=CC=N2)C3=CN(C4=CC=CC=C43)CC5=CC=C(C=C5)F)OC]	34.9
Cc1ccc(Cn2cc(C(CC(=O)NCCc3ccccn3)c3ccc(F)cc3)c3ccccc32)cc1 (stereo not drawn) [B18, CC1=CC=C(C=C1)CN2C=C(C3=CC=CC=C32)C(CC(=O)NCCC4=CC=CC=N4)C5=CC=C(C=C5)F]	13.7
COc1ccc(C(CC(=O)NCCc2ccccn2)c2cn(Cc3ccc(F)cc3)c3ccccc23)cc1 (stereo not drawn) [B20, COC1=CC=C(C=C1)C(CC(=O)NCCC2=CC=CC=N2)C3=CN(C4=CC=CC=C43)CC5=CC=C(C=C5)F]	37.5
CCN1CCN(C(=O)CC(c2ccc(C(F)(F)F)cc2)c2cn(Cc3ccc(F)cc3)c3ccccc23)CC1 (stereo not drawn) [B21, CCN1CCN(CC1)C(=O)CC(C2=CC=C(C=C2)C(F)(F)F)C3=CN(C4=CC=CC=C43)CC5=CC=C(C=C5)F]	71.4
COc1cc(OC)cc(C(CC(=O)NCCc2ccccn2)c2cn(Cc3ccccc3)c3ccccc23)c1 (stereo not drawn) [B22, COC1=CC(=CC(=C1)C(CC(=O)NCCC2=CC=CC=N2)C3=CN(C4=CC=CC=C43)CC5=CC=CC=C5)OC]	45
O=C(CC(c1ccc(C(F)(F)F)cc1)c1cn(Cc2ccc(F)cc2)c2ccccc12)NCCN1CCOCC1 (stereo not drawn) [B24, C1COCCN1CCNC(=O)CC(C2=CC=C(C=C2)C(F)(F)F)C3=CN(C4=CC=CC=C43)CC5=CC=C(C=C5)F]	16
